# Read-outs that look alike come from different tables or passages of the source.
# Tests used:
# [1] = system: Bovine brain tubulin; assay: In vitro tubulin polymerization assay (bovine brain tubulin); format: biochemical; details: 10 μM
# [2] = Metabolic stability in mouse liver microsomes; format: in vitro ADME; details: mouse, liver microsomes, pH 7.4, Table 20; read-out: Half life in Mouse liver microsome
# [3] = Metabolic stability in rat liver microsomes; format: in vitro ADME; details: rat, liver microsomes, pH 7.4; Table 20; read-out: Half life in Rat liver microsome
# [4] = Metabolic stability in dog liver microsomes; format: in vitro ADME; details: dog, dog liver microsomes, pH 7.4; Table 20; read-out: Half life in Dog liver microsome
# [5] = Metabolic stability in monkey liver microsomes; format: in vitro ADME; details: monkey, monkey liver microsomes, pH 7.4; Table 20; read-out: Half life in Monkey liver microsome
# [6] = system: tubulin (colchicine, vinblastine and paclitaxel binding sites); assay: Mass spectrometry competitive binding assay on tubulin
# Source text: MS competition binding assay. […] Each reaction was run in triplicate.
# [7] = system: A375 human melanoma xenograft; assay: In vivo efficacy, A375 human melanoma xenograft in mice
# Procedure: DTIC at 60 mg/kg was used as a positive control again.
# PC-3 and A375 tumor xenograft studies.
# (§1) In vivo antitumor activity [tumor growth inhibition (% T/C), tumor growth delay (T-C value), and tumor cell kill (total log cell kill)].
# [8] = system: PC-3 xenografts
# Source text: as §1
# [9] = system: PC-3 cells; assay: Apoptosis detection by ELISA (cytoplasmic DNA-histone complexes), PC-3 cells; format: cell-based, human; details: PC-3 and A375 cells, 24 h
# Source text: The levels of DNA-histone complexes were used to represent cell apoptosis.
# Apoptosis detection by ELISA. Quantification of the enrichment of mono- and oligonucleosomes in the cytoplasm was used to determine the ability of the compounds to induce apoptosis (cell death detection ELISA PLUS, Roche, Germany) following the manufacturer's instructions.
# [10] = Rotarod test (in vivo neurotoxicity) in ICR mice; design: species or system mouse; details: 1h 5 or 15 mg/kg, vinblastine 0.5 mg/kg, i.p. daily
# Procedure: Rotarod test. […] The rotarod test was performed twice a week.
# [11] = ICR mice, 4 consecutive days of intraperitoneal dosing
# [12] = in vivo; details: Sprague-Dawley, rat, plasma
# [13] = in vivo; details: male, ICR, mouse, plasma, iv, 15 mg/kg
# [14] = Pharmacokinetic study in Sprague-Dawley rats
# [15] = system: NCI/ADR-RES; assay: SRB cytotoxicity assay, P-gp over-expressing NCI/ADR-RES cells; format: cell-based, human; details: NCI/ADR-RES versus OVCAR-8
# [16] = Metabolic stability in human liver microsomes; details: human, liver microsomes, pH 7.4
# [17] = system: A375 cells; assay: Cell cycle analysis (flow cytometry) in A375 cells; format: cell-based, human; details: 24 h
# [18] = system: B16-F1 melanoma cells; assay: B16-F1 melanoma colony formation assay in soft agar; format: cell-based, mouse; details: 14 days
# Procedure: B16-F1 melanoma cells were plated at a colony-forming density (2000 cells per well on six-well plates) on top of 0.8% base agar. Cells were grown in 0.4% agar together with DMEM medium supplemented with fetal bovine serum and an antibiotic-antimycotic solution at 37° C. in an atmosphere of 95% air and 5% CO2. […] Compounds were added to the media from 1 mM DMSO stock solutions, and a corresponding dilution of DMSO was used as control. Cells were grown for 14 days. Plates were photographed, and the number of colonies was measured by Artek 880 Automated Colony Counter (Artek Systems Corporation, Farmingdale, NY).
# [19] = system: WM-164 melanoma cells; assay: Microtubule imaging (immunofluorescence) in WM-164 melanoma cells; format: cell-based, human; details: 18 h
# Source text: Primary antibody for tubulin and fluorescence-labeled secondary antibody were subsequently added to the cells. Cell nuclei were stained by DAPI. Whole Cell Stain Green was also applied to all cells. All images were acquired with an Olympus IX71 inverted fluorescence microscope (Olympus Corp., Tokyo, Japan) with overlays from separate images of tubulin (red), nuclei (blue), and whole cells (green).
# [20] = system: T1, tubulin colchicine binding site; assay: [3H]-colchicine competition-binding scintillation proximity assay
# T1 construct: […]
# [21] = Permeability (drug-like properties); details: mean from duplicate studies
# [22] = system: PC-3; assay: SRB cytotoxicity assay, PC-3 prostate cancer cells; format: cell-based, human; details: Homo sapiens, PC-3; Table 16B; read-out: IC50 in PC3
# Source text: Cells were stained with SRB solution.
# [23] = system: Porcine brain tubulin; assay: In vitro microtubule polymerization assay (porcine brain tubulin); format: biochemical; details: 5 μM, at 15 min
# [24] = system: PC-3/TxR tumors; details: PC-3/TxR xenograft, b.i.d × 5/w, end point day 26
# [25] = Pharmacokinetic study in ICR mice; details: mouse, in vivo
# [26] = Pharmacokinetic study in beagle dogs; details: dog, in vivo
# [27] = system: glioma cells; assay: SRB cytotoxicity assay, glioma cells; details: read-out: potency in glioma cells
# [28] = system: HUVECs; assay: Endothelial cell growth inhibition (SRB), HUVEC; format: cell-based, human
# [29] = system: BCRP; assay: in vitro; details: human
smiles,measurement,setting,value
"COc1cc(C(=O)c2csc(-c3ccccc3)n2)cc(OC)c1OC [1h, (2-Phenyl-thiazol-4-yl)-(3,4,5-trimethoxy-phenyl)-methanone]",inhibition of tubulin polymerization,[1]; 15 min,90%
same,inhibition of tubulin polymerization,"[1]; 20 min incubation, versus vehicle",47%
same,half-life at 0.5 μM,[2],< 5 min
same,half-life at 0.5 μM,[3],31 min
same,half-life at 0.5 μM,[4],19 min
same,half-life at 0.5 μM,[5],< 5 min
same,competition for tubulin binding sites,[6],specifically competed with colchicine binding to tubulin
same,T-C (tumor growth delay),"[7]; Melanoma (A375) xenograft, 20 mg/kg i.p.",10 days
same,Total log cell kill,"[7]; ip, 20 mg/kg, 110.4 h",0.7
same,% T/C,[8]; 5 mg/kg i.p.,29%
same,% T/C,[8]; 15 mg/kg i.p.,4%
same,% T/C,"[8]; ip, 15 mg/kg, 504 h",4%
same,mice that lost more than 15% body weight,"[8]; mouse, in vivo",1 of 8
same,concentration inducing apoptosis,[9],50 nM
same,time on the rotating rod versus vehicle group,[10],no significant difference
same,dose that did not cause greater than 10% loss of body weight,[11],up to 30 mg/kg
same,Vd,"[12]; iv, […]",7.6 L/kg
same,clearance,"[12]; iv, […]",6 mL/min/kg
same,half-life,"[12]; iv, […]",1440 min
same,clearance,"[12]; female, iv",7.7 ± 1 mL/min/kg
same,AUC,[13],1900 ng·h/mL
same,half-life,[13],140 min
same,Vss (volume of distribution following intravenous dosing),"[14]; IV, […] (1h, 2r), 5 mg/kg (5Ha, 5Hc)",4.9 ± 1.9 L/kg
same,RatPK_PO10mgk_AUC,"[14]; rat, PO 10 mg/kg",37 µg·min/mL
same,"F (percent oral bioavailability), rat","[14]; rats, PO versus IV",3.3%
"COc1cc(C(=NC#N)c2csc(-c3ccccc3)n2)cc(OC)c1OC [2j, N-((2-phenylthiazol-4-yl)(3,4,5-trimethoxyphenyl)methylene)cyanamide]",Resistance factor,[15],0.4
same,half-life at 0.5 μM,[16],< 5 min
"COc1ccc(-c2nc(C(=O)c3ccc(F)cc3)c[nH]2)cc1 [12cb, (4-fluorophenyl)(2-(4-methoxyphenyl)-1H-imidazol-4-yl)methanone]",concentration from which most cells are arrested in the G2/M phase,[17],200 nM
same,concentration with effective inhibition of colony formation,[18],20 nM
same,effect on microtubules,[19],microtubule fragmentation
"COc1cc(C(=O)c2c[nH]c(-c3ccc(C)cc3)n2)cc(OC)c1OC [12da, (2-(p-tolyl)-1H-imidazol-4-yl)(3,4,5-trimethoxyphenyl)methanone]",half-life at 0.5 μM,[2],8 min
same,half-life at 0.5 μM,[3],28 min
same,half-life at 0.5 μM,[4],17 min
same,colchicine site binding in words,[20],highest binding affinity
same,effect on microtubules,[19],microtubule fragmentation
same,half-life at 0.5 μM,[16],23 min
CC(C)NCC(O)COc1cccc2ccccc12 (stereo not shown) [Propranolol],Papp(A→B) in CaCO-2 assay,[21],(19) 10^−6 cm/s
"COc1cc(C(=O)c2csc(Nc3ccc4[nH]ccc4c3)n2)cc(OC)c1OC [compound 55, (2-(1H-INDOL-5-YLAMINO)THIAZOL-4-YL)(3,4,5-TRIMETHOXYPHENYL)METHANONE]",IC50,[22],0.028 µM
same,inhibition of tubulin polymerization,[23],40%
same,competition for tubulin binding sites,[6],competed effectively with colchicine
same,Tumor size End,[24]; PO 10 mpk,1152 ± 433 mm^3
same,Tumor size End,[24]; PO 30 mpk,101 ± 19 mm^3
same,bioavailability,"[12]; ICR, beagle, po",24 to 36%
same,"clearance in words, mice",[25],moderate clearance
same,Papp(A→B) in CaCO-2 assay,[21],99 10^−6 cm/s
same,"clearance in words, dogs",[26],moderate clearance
same,IC50,[27],0.022 µM
same,"clearance in words, rats","[14]; rat, in vivo",low clearance
COc1cccc2c1C(=O)c1c(O)c3c(c(O)c1C2=O)C[C@@](O)(C(=O)CO)C[C@@H]3O[C@H]1C[C@H](N)[C@H](O)[C@H](C)O1 [doxorubicin],times more active against endothelial cells than against cancer cells,[28],not specific to endothelial cells
same,IC50,[28]; N = 3,0.274 µM
"CC[C@]1(O)C[C@@H]2CN(CCc3c([nH]c4ccccc34)[C@@](C(=O)OC)(c3cc4c(cc3OC)N(C)[C@H]3[C@@](O)(C(=O)OC)[C@H](OC(C)=O)[C@]5(CC)C=CCN6CC[C@]43[C@@H]65)C2)C1 [vinblastine, reference compound]",competition for tubulin binding sites,[6],did not inhibit the colchicine-tubulin binding
same,% T/C,"[8]; 0.5 mg/kg q2d, day 22",29%
same,% T/C,"[8]; Prostate (PC-3) xenograft, 0.5 mg/kg, q2d",29%
same,time on the rotating rod versus vehicle group,[10],gradually reduced the time
same,IC50,[29],0.025 ± 0.001 µM

# — patent publication US12187720B2, “Compounds for treatment of cancer” (ONCTERNAL THERAPEUTICS, INC., priority 2010, dated 2025)
